The term inhibition denotes the share of the control response that was lost under treatment. The IC50 is the concentration that gives 50% inhibition. The low end stands for greater potency in that assay, the high end for weaker potency in that assay.

The values that follow come from patent publication US4820828A, “Cinnamohydroxamic acids” (Ortho Pharmaceutical Corporation, priority 1987, dated 1989).

Read-outs that look alike come from different tables or passages of the source.

Assay [1] has as its system Arachidonate Induced Bronchospasm. The assay is described as follows: Pulmonary mechanics assay: inhibition of arachidonate induced bronchospasm in anesthetized guinea pigs. To be noted: Cavia porcellus, guinea pig, % inhibition of control; for inhibition in vivo at 15 mg/kg: dose 15 mg/kg IV; for inhibition in vivo at 50 mg/kg: dose 50 mg/kg ID; for inhibition in vivo at 100 mg/kg: dose 100 mg/kg ID. The class given is in vivo, guinea pig (male Hartley). The protocol: The bronchodilating activity of the compounds was tested in a pulmonary mechanics assay. Basically, male Hartley guinea pigs (~400-500 g) were anesthetized with urethane (2 g/kg, i.p.) and placed in a whole body plethysmograph. Cannulations of a jugular vein and carotid artery were performed for compound administration and monitoring blood presure, respectively. The trachea was cannulated for respiration at a constant volume via a miniature starling pump. A Validyne differential pressure transducer (±20 cm H2 O) sensed transpleural pressure via a 15 gauge needle inserted into the pleural cavity and a sidearm from the tracheal cannula. Tidal volume was sensed by another Validyne differential pressure transducer (±2 cm H2 O) from pressure changes inside the plethysmograph. An on-line Buxco pulmonary mechanics computer calculated air flow, dynamic lung compliance and lung resistance. The values were recorded on a print-out.
The guinea pigs were pretreated with succinyl choline (1.2 mg/kg, i.v.) to arrest spontaneous respiration. A control challenge of arachidonic acid (0.5-1.0 mg/kg, i.v.) was administered, and the animals were then dosed with the test compound by various routes. At least 10 minutes were allowed to expire between arachidonic acid challenges. A second challenge was given and compared to the control response. This comparison was indicative of cyclooxygenase inhibition. Indomethacin (10 mg/kg, i.v.) was administered immediately after the second challenge. A third challenge of a higher dose of arachidonic acid (5-10 mg/kg, i.v.) was given. This response was induced by SRS-A and compared to the responses elicited by a separate control group of animals. Activity was indicative of lipoxygenase inhibition. Propranolol (0.005 mg/kg, i.v.) may be given prior to the third challenge to enhance the response to SRS-A.
Bronchoconstriction induced by arachidonic acid with or without indomethacin was expressed as maximum percent change in dynamic lung compliance (Cdyn) and maximum percent increase in lung resistance (RL). Each guinea pig served as its own control for cyclooxygenase evaluation, while a treated group was compared to a control group for lipoxygenase evaluation. The results are shown in Table II and are expressed as the percent inhibition of control.

Another assay has as its target T1, 5-lipoxygenase (Rattus norvegicus, UniProt P12527).
T1 construct: The cell-free homogenate was prepared by sonication of the cells followed by centrifugation at 40,000 xg; endogenous in cells; host or cells: RBL-1 (rat basophilic leukemia) cells, 40,000 xg supernatant of the sonicated homogenate
T1 sequence (P12527 1-673): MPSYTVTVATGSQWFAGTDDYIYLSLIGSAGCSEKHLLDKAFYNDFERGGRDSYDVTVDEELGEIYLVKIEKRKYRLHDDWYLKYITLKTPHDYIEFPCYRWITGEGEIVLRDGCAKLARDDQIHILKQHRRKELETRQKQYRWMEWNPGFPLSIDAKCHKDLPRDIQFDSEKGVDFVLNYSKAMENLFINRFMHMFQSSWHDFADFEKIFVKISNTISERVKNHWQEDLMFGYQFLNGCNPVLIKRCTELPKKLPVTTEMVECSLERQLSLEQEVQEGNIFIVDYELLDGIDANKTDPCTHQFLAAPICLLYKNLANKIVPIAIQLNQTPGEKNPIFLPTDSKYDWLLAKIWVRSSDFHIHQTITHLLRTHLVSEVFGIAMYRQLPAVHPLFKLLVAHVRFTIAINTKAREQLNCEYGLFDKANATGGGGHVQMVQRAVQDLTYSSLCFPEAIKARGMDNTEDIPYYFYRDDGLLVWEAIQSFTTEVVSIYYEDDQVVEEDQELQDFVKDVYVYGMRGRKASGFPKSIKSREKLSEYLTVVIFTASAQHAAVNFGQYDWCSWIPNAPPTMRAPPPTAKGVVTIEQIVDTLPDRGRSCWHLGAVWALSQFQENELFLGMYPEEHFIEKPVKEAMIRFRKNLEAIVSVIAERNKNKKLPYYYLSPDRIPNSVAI
The experiment in a line: Inhibition of 5-lipoxygenase in a cell-free homogenate of RBL-1 cells (production of lipoxygenase products from 14C-arachidonic acid). In kind it is biochemical. To be noted: rat RBL-1 40,000 xg supernatant; for IC50: 50% inhibition of lipoxygenase product generation. On the procedure:
The inhibition of 5-lipoxygenase was tested in a cell-free homogenate by the procedure of Jakschik, B. et al., Biochem.Biophys.Res.Comm. 95, 103 (1980). Basically, rat basophilic leukemia cells (RBL-1 cells) were maintained in culture in a suitable medium, and were collected by centrifugation prior to assay. The cell-free homogenate was prepared by sonication of the cells followed by centrifugation at 40,000 xg. The CaCl2 dependent production of lipoxygenase products from ^14 C-arachidonic acid in the 40,000 xg supernatant was monitored in the presence of buffer (or other vehicle) or drug. Products were isolated by acidification and extraction, followed by thin layer chromatography. Radioactive areas corresponding to authentic lipoxygenase products were quantitated by liquid scintillation counting. Data was reported as the IC50, the concentration causing 50% inhibition of the generation of lipoxygenase products. The results are shown in Table II as the percent inhibition at 3 μM or the amount of compound necessary to cause 50% inhibition.

Where [2] appears, read: with indomethacin (10 mg/kg, i.v.), read-out: Bronchodilating Activity, % Inhibition of Arachidonate Induced Bronchospasm, with Indomethacin.
The mark [3] stands for this setting: without indomethacin, read-out: Bronchodilating Activity, % Inhibition of Arachidonate Induced Bronchospasm, without Indomethacin.
The mark [4] stands for this setting: iv, with indomethacin (10 mg/kg, i.v.), read-out: Bronchodilating Activity, % Inhibition of Arachidonate Induced Bronchospasm, with Indomethacin.

As for `COc1ccc(OC)c(/C=C/C(=O)N(C)O)c1` [Example 2, 2,5-Dimethoxy-N-methylcinnamohydroxamic acid], the inhibition in vivo at 15 mg/kg in assay [1] (setting [2]) is 49%; in assay [1] (setting [3]), 65%. For the same molecule, the inhibition at 3 µM on 5-lipoxygenase is 53%.

On to `COc1cccc(OC)c1/C=C/C(=O)N(C)O` [Example 22, 2,6-Dimethoxy-N--methylcinnamohydroxamic acid], for which the inhibition at 3 µM on 5-lipoxygenase was 41%.

As to `COc1ccccc1/C=C\C(=O)N(C)O` [Example 9, Cis-2-methoxy-N--methylcinnamohydroxamic acid], the inhibition in vivo at 15 mg/kg in assay [1] (setting [2]) stood at 36%; in assay [1] (setting [3]), 29%. This molecule came in with an inhibition at 3 µM against 5-lipoxygenase of 59%.

For `COc1cccc(/C=C/C(=O)N(C)O)c1OC` [Example 19, 2,3-Dimethoxy-N--methylcinnamohydroxamic acid], the inhibition in vivo at 15 mg/kg was found to be 70% in assay [1] (setting [2]) and 34% in assay [1] (setting [3]). The molecule also yielded an inhibition at 3 µM at 5-lipoxygenase of 44%.

As to `CN(O)C(=O)/C=C/c1ccccc1` [Example 17, N--Methylcinnamohydroxamic acid], the inhibition in vivo at 50 mg/kg in assay [1] (setting [4]) was 0%; in assay [1] (setting [3]), -35%. This molecule also showed an inhibition at 3 µM against 5-lipoxygenase of 50%.

For `COc1ccc(/C=C/C(=O)N(C)O)cc1` [Example 25, 4-Methoxy-N--methylcinnamohydroxamic acid], the inhibition in vivo at 15 mg/kg was 29% in assay [1] (setting [2]) and 0% in assay [1] (setting [3]). The same molecule displayed an IC50 against 5-lipoxygenase of 1300 nM.

As to `COc1ccc(/C=C/C(=O)N(C)O)cc1OC` [Example 4, 3,4-Dimethoxy-N-methylcinnamohydroxamic acid], the inhibition in vivo at 15 mg/kg in assay [1] (setting [2]) came to 90%. The inhibition in vivo at 15 mg/kg in assay [1] (setting [3]) is 82%. Further, at 5-lipoxygenase, at 3 µM the inhibition was 89% and the IC50 came out at 600 nM.

Consider `CN(O)C(=O)/C=C/c1ccc(Cl)cc1Cl` [Example 14, 2,4-Dichloro-N--methylcinnamohydroxamic acid], for which the inhibition at 3 µM at 5-lipoxygenase was 88%.

At 5-lipoxygenase, `CN(O)C(=O)/C=C/c1ccc(Cl)c(O)c1` [Example 5, 4-Chloro-3-hydroxy-N-methylcinnamohydroxamic acid] returned an inhibition at 3 µM of 35%.

With `CN(O)C(=O)/C=C/c1ccc(Cl)cc1` [Example 26, 4-Chloro-N--methylcinnamohydroxamic acid], the results for the inhibition in vivo at 15 mg/kg in assay [1] (setting [2]) and in assay [1] (setting [3]) were 70% and 87%, respectively.

For the molecule `COc1cc(/C=C/C(=O)N(C)O)cc(OC)c1OC` [Example 3, 3,4,5-Trimethoxy-N-methycinnamohydroxamic acid], the inhibition in vivo at 15 mg/kg turned out to be 89% in assay [1] (setting [2]) and 0% in assay [1] (setting [3]). Also, the inhibition at 3 µM against 5-lipoxygenase was 91%.

As for `Cc1ccc(/C=C/C(=O)N(C)O)cc1` [Example 7, N,4-Dimethylcinnamohydroxamic acid], the inhibition in vivo at 100 mg/kg in assay [1] (setting [4]) was found to be 0%; in assay [1] (setting [3]), 59%. In addition, the inhibition in vivo at 15 mg/kg in assay [1] (setting [2]) was 89%; in assay [1] (setting [3]) it was 96%. The molecule further came in with an IC50 at 5-lipoxygenase of 550 nM.

As to `COc1cccc(/C=C/C(=O)N(C)O)c1` [Example 24, 3-Methoxy-N--methylcinnamohydroxamic acid], the values for the inhibition in vivo at 50 mg/kg in assay [1] (setting [4]) and in assay [1] (setting [3]) were 49% and 0%, respectively. The inhibition in vivo at 15 mg/kg in assay [1] (setting [2]) was 66%; in assay [1] (setting [3]), 28%. This molecule also had an inhibition at 3 µM against 5-lipoxygenase of 54%.

Regarding `COc1ccccc1/C=C/C(=O)N(C)O` [Example 8, 2-Methoxy-N--methylcinnamohydroxamic acid], the inhibition in vivo at 50 mg/kg was 58% in assay [1] (setting [4]) and -76% in assay [1] (setting [3]). For the same molecule, the inhibition in vivo at 15 mg/kg is 73% in assay [1] (setting [2]) and 94% in assay [1] (setting [3]). Moreover, the inhibition at 3 µM on 5-lipoxygenase amounted to 66%.

`CN(O)C(=O)/C=C/c1ccc2c(c1)OCO2` [Example 12, 3,4-Methylenedioxy-N--methylcinnamohydroxamic acid]: the inhibition in vivo at 15 mg/kg in assay [1] (setting [2]) came to 58%; in assay [1] (setting [3]) it was 15%. For the same molecule, at 5-lipoxygenase, at 3 µM the inhibition was 53%.

The molecule `CN(O)C(=O)/C=C/c1ccc2c(c1)OCCO2` [Example 13, 3,4-(1,2-Ethylenedioxy)-N--methylcinnamohydroxamic acid] showed an inhibition at 3 µM at 5-lipoxygenase of 53%.

`COc1cc(/C=C/C(=O)N(C)O)cc(OC)c1O` [Example 10, 3,5-Dimethoxy-4-hydroxy-N--methylcinnamohydroxamic acid] displayed an inhibition at 3 µM against 5-lipoxygenase of 17%.

As to `CN(O)C(=O)/C=C/c1ccc(Cl)c(Cl)c1` [Example 16, 3,4-Dichloro-N--methylcinnamohydroxamic acid], the inhibition in vivo at 15 mg/kg worked out at 86% in assay [1] (setting [2]) and 62% in assay [1] (setting [3]). On 5-lipoxygenase, this molecule yielded an inhibition at 3 µM of 87%.

Regarding `COc1cc(/C=C/C(=O)N(C)O)cc(OC)c1` [Example 18, 3,5-Dimethoxy-N--methylcinnamohydroxamic acid], the inhibition in vivo at 15 mg/kg amounted to 78% in assay [1] (setting [2]) and 48% in assay [1] (setting [3]). The inhibition at 3 µM against 5-lipoxygenase stood at 100%.

`CN(O)C(=O)/C=C/c1ccc(F)cc1` [Example 1, 4-Fluoro-N-methylcinnamohydroxamic acid] showed an inhibition at 3 µM against 5-lipoxygenase of 30%.

Consider `CN(O)C(=O)/C=C/c1cc(C(C)(C)C)c(O)c(C(C)(C)C)c1` [Example 27, 3,5-Di-t-butyl-4-hydroxy-N--methyl-cinnamo-hydroxamic acid], for which the inhibition in vivo at 15 mg/kg in assay [1] (setting [2]) stood at 89%; in assay [1] (setting [3]), 56%. At 5-lipoxygenase, this molecule returned an inhibition at 3 µM of 65%.

Turning to `CN(O)C(=O)/C=C/c1c(Cl)cccc1Cl` [Example 15, 2,6-Dichloro-N--methylcinnamohydroxamic acid], the inhibition at 3 µM at 5-lipoxygenase turned out to be 24%.

On 5-lipoxygenase, `CN(O)C(=O)/C=C/c1ccc(Cl)c([N+](=O)[O-])c1` [Example 23, 4-Chloro-3-nitro-N--methylcinnamohydroxamic acid] had an inhibition at 3 µM of 30%.
